Several values for one entry are separate records, joined by “and”; a condition that tells them apart may be missing. Equal values may be shown once. Entries after “also recorded” stand apart in the source; their conditions may differ. Read-outs that look alike come from different tables or passages of the source.
Columns and labels:
[1] = system: CRC042 patient-derived tumor organoids; test: Patient tumor organoid cytotoxicity; type: cell-based; details: Homo sapiens; single agent, Table 4A
SW620 cells = test: Annexin V-FITC apoptosis assay; type: cell-based, human; details: 12 h, compared to DMSO; positive control SN-38
Description: SW620 cells were plated at 30,000 cells/well in 96-well plates. […] Cells were then rinsed 2× with cold PBS, 1× with cold Annexin-V staining buffer (10 mM HEPES, pH 7.4, 140 mM NaCl, 2.5 mM CaCl2), and then incubated with Annexin-V FITC at 1:100 for 30 min in the dark. Cells were then rinsed 2× with Annexin-V staining buffer and FITC intensity was measured using an EnVision® plate reader (PerkinElmer, Hopkinton, Mass.).

[2] = Liver toxicity, histological evaluation; type: in vivo, athymic nude mice; set-up: key to Liver Inflammation score: 0 = none; 1 = minimal; 2 = mild; 3 = moderate; 4 = severe; key to Liver Assessment: N = normal background lesion for mouse strain; A = abnormal; details: for liver toxicity, in words: 50 mg/kg i.p. QD 5 days
Description: Two million VimPro-GFP SW620 cells suspended in 100 μL of a 1:1 mixture of Matrigel® matrix (Corning Life Sciences, Corning, N.Y.) and RPMI 1640 were injected into the flanks of 9-week old female athymic nude mice (Nude-Foxn1nu (069)) (Envigo, Huntingdon, Cambridgeshire, UK). Growth was monitored with caliper measurements 3× per week. […] Treatments were administered i.p. QD over five days. Mice were sacrificed 2 h after the final dose on day five of the treatment.

[3] = system: VimPro-GFP SW620 xenograft tumors; test: Pharmacodynamic Western blot of xenograft tumor tissue; type: in vivo, athymic nude mice; details: 50 mg/kg i.p. QD 5 days
Description: CRC cell lines and homogenized tumor tissue samples from mice were resuspended in RIPA lysis buffer (20 mM Tris-HCl (pH 7.5), 150 mM NaCl, 1 mM Na2EDTA, 1 mM EGTA, 1% NP-40, 1% sodium deoxycholate, 2.5 mM sodium pyrophosphate, 1 mM b-glycerophosphate, 1 mM Na3VO4, 0.1 mM PMSF. Protein concentration was determined using the Pierce™ BCA protein assay kit (ThermoFisher, Waltham, Mass.). Forty micrograms of sample were run on 10% Bis-Tris gels. Following electrophoresis, the proteins were transferred to a nitrocellulose membrane. The membranes were blocked at room temperature with 5% non-fat milk in TBS/Tween® 20 (TBST contains 20 mM Tris, 150 mM NaCl, and 0.1% Tween®20 (Croda International PLC, Snaith, UK) for 1 hour at room temperature. Membranes were washed three times with TBST. Blots were incubated with the appropriate primary antibody in 5% nonfat milk in TBST overnight at 4° C. Membranes were washed three times with TBST and then incubated with appropriate secondary antibody for one hour. Membranes were washed again with TBST three times. […]
Two million VimPro-GFP SW620 cells suspended in 100 μL of a 1:1 mixture of Matrigel® matrix (Corning Life Sciences, Corning, N.Y.) and RPMI 1640 were injected into the flanks of 9-week old female athymic nude mice (Nude-Foxn1nu (069)) (Envigo, Huntingdon, Cambridgeshire, UK). Growth was monitored with caliper measurements 3× per week. […]

HCT116 tumor organoids = test: Tumor organoid cytotoxicity (CellTiter-Glo 3D); type: cell-based, human; details: Homo sapiens
Description: Cell based cytotoxicity dose response and combination studies. […] Plates were then incubated for 3 days before treatment.
Cell Line Tumor Organoid Culture.
Tumor Organoid Cytotoxicity.

SW620 tumor organoids = test: Western blot of treated SW620 tumor organoids; type: cell-based, human
Description: CRC cell lines and homogenized tumor tissue samples from mice were resuspended in RIPA lysis buffer (20 mM Tris-HCl (pH 7.5), 150 mM NaCl, 1 mM Na2EDTA, 1 mM EGTA, 1% NP-40, 1% sodium deoxycholate, 2.5 mM sodium pyrophosphate, 1 mM b-glycerophosphate, 1 mM Na3VO4, 0.1 mM PMSF. Protein concentration was determined using the Pierce™ BCA protein assay kit (ThermoFisher, Waltham, Mass.). Forty micrograms of sample were run on 10% Bis-Tris gels. Following electrophoresis, the proteins were transferred to a nitrocellulose membrane. The membranes were blocked at room temperature with 5% non-fat milk in TBS/Tween® 20 (TBST contains 20 mM Tris, 150 mM NaCl, and 0.1% Tween®20 (Croda International PLC, Snaith, UK) for 1 hour at room temperature. Membranes were washed three times with TBST. Blots were incubated with the appropriate primary antibody in 5% nonfat milk in TBST overnight at 4° C. Membranes were washed three times with TBST and then incubated with appropriate secondary antibody for one hour. Membranes were washed again with TBST three times. Blots were exposed using SuperSignal™West Pico PLUS Chemiluminescent Substrate (ThermoFisher, Waltham, Mass.) and imaged using a ChemiDoc imaging system (Bio-Rad, Hercules, Calif.). [See: Abbott et al., 2020 and its Supplementary Information for Western Blots]

[4] = system: vimentin promoter activity; test: VimPro-GFP reporter 3D high-content imaging in tumor organoids; type: cell-based, human; details: 72 h
Description: After validating hits 5-7 against CHD1L mediated TCF transcription, the ability of these compounds to reverse EMT and other malignant properties in CRC were evaluated. E-cadherin and vimentin are putative biomarkers for the epithelial and mesenchymal phenotypes, respectively. [McDonald et al., 2015] Loss of E-cadherin and gain of vimentin are also clinical biomarkers of poor prognosis. [Yun et al., 2014; Richardson et al., 2012; Dhanasekaran et al., 2001; Kashiwagi et al., 2010; Toiyama et al., 2013] Accordingly, lentiviral promoter driven reporters for E-cadherin (pCDH1-EcadPro-RFP) and vimentin (pCDH1-VimPro-GFP) were developed, which faithfully report E-cadherin and vimentin protein expression, respectively. [Zhou et al., 2016; Abraham et al., 2019] SW620 cells transduced with either EcadPro-RFP or VimPro-GFP were cultured as tumor organoids for 72 h, reaching a diameter of 600 μm. Tumor organoids were treated with compounds 5-7 for an additional 72 h to determine the effective concentration 50 percent (EC50) for modulating promoter activity. Changes in promoter expression was quantified using a 3D confocal image […] based high-content analysis algorithm (FIG. 2A-2B). [Zhou et al., 2016; Abraham et al., 2019]
Stable VimPro-GFP or EcadPro-RFP SW620 reporter cells were generated using pCDH imPro-GFP-EF1-puro virus or pCDH-EcadPro-mCherry-EF1-puro virus as previously reported. [Zhou et al., 2016; Abraham et al., 2019] The stable fluorescently labeled reporter cells were used to generate tumor organoids as described herein. Tumor organoids were treated with CHD1L inhibitors at 10 μM for an additional 72 h. Following treatment, tumor organoids were stained with 16 μM of Hoechst 33342 for 1 h (nuclei stain). Images were taken with a 5× air objective. Z-stacks were set at 26.5 μm apart for a total of 15 optical slices. Imaging and high-content analysis were performed using an Opera Phenix™ and Harmony® software (PerkinElmer, Hopkinton, Mass.). Nuclei were identified within each layer and cells were found with either GFP or mCherry channel. The fluorescence intensities of each channel were calculated and thresholds were set based on the background intensities. Percentages of GFP or mCherry RFP positive cells were calculated and normalized to the DMSO treated group.
3D High-Content Imaging and Analysis of EMT Dual-Reporter Activity. Tumor organoids were imaged using the Opera Phenix high-content screening system (PerkinElmer) in confocal mode utilizing a 10× air objective (NA 0.3). […] Organoids were also imaged in Brightfield to segment and perform high-content analysis of dual reporter specific fluorescence intensity. […] Both fluorescent signals were quantified and normalized as previously described. […]

[5] = HCT-116, single agent, Table 4A, read-out: Tumor Organoid Cytotoxicity IC50 (μM) HCT116

Compound	IC50 [1] [µM]	apoptosis (annexin-V staining) (SW620 cells)	Liver Assessment ([2]; 50 mg/kg QD 5 days, one line per animal, listed as Compound 6.0)	Liver Inflammation score ([2]; 50 mg/kg QD 5 days, one line per animal, scored if abnormal)	liver toxicity, in words [2]	liver toxicity, in words ([2]; listed as 6.0)	epithelial marker ZO-1 and cleaved caspase 3 in tumor tissue [3]	mesenchymal markers vimentin, vimentin reporter (VimPro-GFP) and slug in tumor tissue [3]	IC50 (HCT116 tumor organoids; [5]) [µM]	E-cadherin cleavage (marker of apoptosis) (SW620 tumor organoids)	cleaved PARP1, cleaved caspase 8 and cleaved caspase 3 (SW620 tumor organoids; relative to DMSO control)	EC50 ([4]; Homo sapiens, SW-620, read-out: EC50 downregulation of vimentin promoter activity, SW620 tumor organoids) [µM]	IC50 (HCT116 tumor organoids; HCT-116, 72 h, Table 6, read-out: 3 D Cytotoxicity 72 hr IC50 (μM) HCT116) [µM]	downregulation of vimentin promoter activity (VimPro-GFP), in words ([4]; SW620 or HCT116 tumor organoids)
Cc1cc(Nc2ccc(NC(=O)Cc3cccs3)cc2)nc(N2CCCC2)n1 [Compound 6, N-(4-((6-methyl-2-(pyrrolidin-1-yl)pyrimidin-4-yl)amino)phenyl)-2-(thiophen-2-yl)acetamide]	18.6	induced significant apoptosis	N (2×) and A (2×)	1	no evidence of hepatocyte degeneration, necrosis, hyperplasia, or parenchymal inflammation	no apparent liver toxicity; also recorded: does not display any liver toxicity	not statistically significant, upregulation of the epithelial marker ZO-1 and induction of cleaved caspase 3	significant downregulation	4.93	E-cadherin is cleaved	increases in cleaved PARP1, cleaved caspase 8, and cleaved caspase 3			
COc1ccc(-c2nc(S(=O)(=O)c3ccccc3)c(S(C)(=O)=O)o2)cc1 [Compound 5]										E-cadherin is cleaved		15.6 ± 1.7		
Cc1cc(Nc2ccc(NC(=O)c3c[nH]c4ccccc34)cc2)nc(N2CCCC2)n1 [Compound 6.3, N-(4-((6-methyl-2-(pyrrolidin-1-yl)pyrimidin-4-yl)amino)phenyl)-1H-indole-3-carboxamide]									3.72				3.7	downregulation of vimentin

From US20230103444A1 (The Regents of the University of Colorado, a Body Corporate, priority 2020, published 2023)
